Where no end group is shown, it is not given here.
Key:
CREB-S133 = assay: CREB phosphorylation by western blot in keratinocytes after solar simulated UV; format: cell-based; conditions: 0.1 μM, 1 μM and 5 μM added immediately following ssUV irradiation
Procedure: The influence of the polypeptide IK34720 (SEQ ID NO: 3) on CREB phosphorylation was assessed using the following protocol.
Keratinocytes were harvested and cultured as previously described (Gupta et al., J Invest Dermatol, 2007, 127 (3): 707-215). Keratinocytes, (passages 1-5) from 3 independent donors were used in the experiments illustrated in FIG. 3.
Positive control treatment (denoted “D” in FIG. 3) was prepared by solubilizing Calcitriol (1,25-dihydroxyvitamin D3 (1,25 (OH)2D3)-Cayman Chemical, MI, USA) in 100% spectroscopic ethanol (Merck, Darmstadt, Germany) and the final concentration was determined by spectroscopy (NanoDrop 2000, Thermo Fisher Scientific, MA, USA). The polypeptide IK34720 (SEQ ID NO: 3) was solubilised in phosphate buffered saline (PBS) to a concentration of 1 mM at pH 7.2. A vehicle (denoted as “V” in FIG. 3) constituting 0.1% (v/v) spectroscopic ethanol and 0.1% (v/v) PBS was prepared for use as a negative control.
Cultured cells were irradiated by solar simulated UV-irradiation (ssUV) using an Oriel 1000W xenon-arc lamp (Stratford, CT, USA). Irradiation was administered at an energy level of 400 mJ/cm^2 for UVB and 3600 mJ/cm^2 for UVA (total 4000 mJ/cm^2), measured by an OL754 radiometer (Optronics Laboratories Inc., Orlando, FL). This dosage equates to approximately 4 min irradiation of the sun at 12 noon in October in Sydney, Australia. […]

[1] = tested on: ICR mice, punch skin wound; assay: murine wound model, wound closure; format: in vivo; conditions: topical 10 μg per mouse daily for 10 consecutive days; Day 5 to Day 11; vs negative control (PBS)
From the text: FIGS. 1 and 2 illustrate the effect of polypeptides IK34720 (SEQ ID NO: 3—RSKAKNPLYRRRRRRRRR) (FIG. 1) and the dextro-reverso sequence IK236770 (SEQ ID NO: 4—rrrrrrrrrylpnkaksr) (FIG. 2), on wound healing over 10 days in a murine wound model in accordance with the following protocol.
Three groups of 8 male ICR mice with a mean weight of 22 g (+2 g) were used in the present study. The animals were housed in individual cages during the study. Under isoflurane gas anaesthesia, the shoulder and back region of each animal was shaved and a sharp punch (ID 12 mm) was used to induce a wound by removing the skin, including panniculus carnosus and adherent tissues on Day 1.
Following induction of the wound the polypeptides IK34720 and IK236770 were topically administered to the site of the wound at a dosage of 10 μg per animal. […] An additional group which comprised the administration of Phosphate buffered Saline (PBS) at pH 7.4 was used as a negative control.
The wound healing was analysed on Days 5, 7, 9 and 11 by tracing the periphery of the wound onto clear plastic sheets with the wound area calculated by an Image analyzer ProPlus (Media Cybernetics, Version 4.5.0.29. The percentage closure of the wound (%) was calculated. Percentage closure of the wound was determined on 5, 7, 9 and 11. ANOVA and Dunnett's test were applied to test significant significance between the treated groups (peptide and positive control groups) and the negative control group at each time point of measurement. Differences were considered statistically significant at P<0.05, and are indicated by *.

primary keratinocytes [2] = assay: CPD detection by IHC in keratinocytes 3 h following UV-irradiation; format: cell-based
Procedure: An in vitro assay was conducted allowing for densitometry analysis of CPD detection by IHC in keratinocytes 3 h following UV-irradiation in accordance with the following protocol.
Keratinocytes were harvested and cultured as described above at Example 2. Samples were split into two groups, being UV irradiated (UVR) and non-UV irradiated (SHAM). UV-irradiation was performed by solar simulated UV-irradiation for cells, also as described above at Example 2. Irradiation solution was PBS containing 5 mM D-glucose. […]
Harvested keratinocytes were plated on poly-D-lysine coated coverslips in 96 well plates and irradiated (or sham treated) as described above in at Example 2 in PBS containing 5 mM D-glucose. Keratinocytes were fixed 3 h after UV-irradiation. Immunohistochemistry and image analysis were performed as described previously (Gordon-Thomson et al., Photochem Photobiol Sci, 2012, 11 (12): 1837-47; Gupta et al., vide supra, Rybchyn M S et al., J Invest Dermatol, 2018; 138 (5): 1146-1156). Thymine dimers were detected using the anti-thymine dimer antibody (Sigma-Aldrich, Missouri, USA) at 10 μg/mL, and quantified as an index of CPD, as previously described (Douki T and Cadet J, Biochemistry, 2001, 40 (8): 2495-501).
Following irradiation, keratinocytes were treated with either Calcitriol, vehicle control (Veh) or the polypeptide IK34720 (SEQ ID NO: 3; “IK”) IK14800; (RSKAKNPLYRRRRRRRRR), RSKAKNPLY (IK94000) and RRRRRRRRR (IK00900), at concentrations of 5 μM.

primary keratinocytes [3] = assay: ATP levels, CellTiter-Glo 2.0 Assay, after ssUV; format: cell-based; conditions: 1.5 hours after UVR; compared with Calcitriol
Procedure: The influence of the polypeptide IK34720 (SEQ ID NO: 3) on intracellular ATP following UV exposure was assessed using the following protocol.
Primary keratinocytes were harvested as described above in Example 2 and were either exposed to ssUV-irradiation (UVR), as described above in Example 2 or not irradiated (SHAM), in the presence or absence of Calcitriol (positive control) or polypeptide IK34720 (SEQ ID NO: 3; RSKAKNPLYRRRRRRRRR), at the concentrations described in Example 2.
ATP levels were determined 1.5 hours after UVR using the CellTiter-Glo® 2.0 Assay (Promega, WI, USA) as described previously (Rybchyn et al., vide supra, 2017). All data in FIG. 4 is shown as mean+SD. *p<0.05, **p<0.01. Cells were prepared and irradiated as described above.

[4] = 5 μM after ssUV, fixed 3 h after UV

RSKAKNPLYRRRRRRRRR (not fully specified (some residues)) [IK34720]
UV-induced phosphorylation of serine at position 133 of CREB (CREB-S133): inhibits UV-induced phosphorylation | wound closure percentage [1]: statistically significant increase | CPD levels compared to vehicle-treated UV-irradiated keratinocytes (primary keratinocytes [2]; [4]): statistically significant (*p<0.05) reduction in CPD levels | reduction in CPD levels compared to Calcitriol (primary keratinocytes [2]; [4]): comparable reduction in CPD levels to keratinocytes treated with Calcitriol | inhibition of CPD formation (average intensity of CPD staining) compared to 1,25D (primary keratinocytes [2]; 10 μM, FIG. 8B): more effective at inhibiting CPD formation than the positive control 1,25D | CPD levels, dose response (primary keratinocytes [2]; 0.5, 1, 2.5 or 5 μM after ssUV, fixed 3 h after UV): decreases CPD levels in primary keratinocytes exposed to solar simulated UV-irradiation in a dose dependent manner | ATP levels (primary keratinocytes [3]): enhanced the ATP levels

Source: patent US20250262139A1, “POLYPEPTIDES AND METHODS FOR IMPROVING SKIN CONDITIONS” (INTERK PEPTIDE THERAPEUTICS LIMITED, priority 2020, published 2025)
